Counter-ions that a name gives are not always drawn. Like-named read-outs stand apart in the source and are kept apart here.

For 28 molecules, IC50 results are on record in US20230391786A1, “cGAS INHIBITORS” (Eli Lilly and Company, priority 2022, published 2023).

The target in assay [1] is recombinant human cGAS (Homo sapiens (Human), UniProt Q8N884). As to the kind of experiment: In vitro inhibition assay of cGAS activity (cGAMP production, RapidFire mass spectrometry). Type of assay: biochemical. The note with it: 10 nM recombinant human cGAS, 60 nM 75-bp dsDNA, ATP, GTP, room temperature 3 hours, read-out: IC50 (μM), In vitro inhibition assay for Compounds 95-348. An outline of the steps:
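Full-length His6-tagged human cGAS (10 nM, E. coli-expressed) was incubated 3 h at room temperature with 60 nM 75-bp dsDNA, ATP, 50 μM GTP and compound at pH 7.5 with 5 mM MgCl2. cGAMP formation was measured by RapidFire mass spectrometry, and IC50 was taken from a 4-parameter logistic fit.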

In assay [2] the test system is cGAS activity in THP1 cells (IFNb as marker). Nature of the assay: Cellular assay to measure cGAS activity (IFNb production in PMA-differentiated THP1 cells stimulated by RDG-Adenovirus-GFP). Type of assay: cell-based, human. The settings on record: PMA differentiated, RDG-Adenovirus-GFP 1000 MOI, IFNb AlphaLISA, overnight incubation, read-out: IC50 (μM), Cellular assay for Compounds 95-348. A digest of the protocol:
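PMA-differentiated THP1 cells were infected with RDG-Adenovirus-GFP at 1000 MOI for 4 h, then exposed overnight to test compounds. IFNb in the supernatant was quantified by AlphaLISA as a cGAS activity marker, and IC50 was fitted with a 4-parameter logistic equation.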
On the technique in general: Bead proximity is the source of the signal in Alpha formats.

The mark [3] stands for this setting: Homo sapiens, THP-1, THP1 cells.

recombinant human cGAS, sequence (Q8N884 whole entry): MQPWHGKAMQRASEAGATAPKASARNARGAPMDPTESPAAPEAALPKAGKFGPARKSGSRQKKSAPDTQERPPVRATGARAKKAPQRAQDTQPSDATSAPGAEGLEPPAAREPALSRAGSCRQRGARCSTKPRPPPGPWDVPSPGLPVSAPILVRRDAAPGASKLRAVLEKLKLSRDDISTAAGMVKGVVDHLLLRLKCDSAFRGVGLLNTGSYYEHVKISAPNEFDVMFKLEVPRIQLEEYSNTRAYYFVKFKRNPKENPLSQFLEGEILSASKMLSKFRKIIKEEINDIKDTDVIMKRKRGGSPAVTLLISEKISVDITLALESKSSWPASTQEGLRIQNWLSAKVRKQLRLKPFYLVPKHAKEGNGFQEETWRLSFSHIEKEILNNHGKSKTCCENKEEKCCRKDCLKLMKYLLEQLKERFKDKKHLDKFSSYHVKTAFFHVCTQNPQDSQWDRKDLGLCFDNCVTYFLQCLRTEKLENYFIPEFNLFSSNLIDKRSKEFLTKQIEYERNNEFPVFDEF

The term IC50 denotes the midpoint of a concentration-inhibition curve. On to `CCOc1cc(Cl)c(Cl)c2c1c(-c1cn[nH]c1)c1n2CC[C@@H]1NC(=O)CO` [Example 343, (S)—N-(5,6-Dichloro-8-ethoxy-9-(1H-pyrazol-4-yl)-2,3-dihydro-1H-pyrrolo[1,2-a]indol-1-yl)-2-hydroxyacetamide], for which the IC50 in assay [1] was determined as 0.00614 µM; in assay [2] (setting [3]), 0.565 µM.
On the same counts, the results for `CC(=O)N1CCn2c(c(-c3cn[nH]c3)c3c(OCC#N)cc(Cl)c(Cl)c32)C1` [Example 280, 2-((2-Acetyl-6,7-dichloro-10-(1H-pyrazol-4-yl)-1,2,3,4-tetrahydropyrazino[1,2-a]indol-9-yl)oxy)acetonitrile] are 0.0087 µM and 0.872 µM.
Turning to `NCC(=O)NCc1[nH]c2c(Cl)c(Cl)ccc2c1-c1cn[nH]c1` [Example 216, 2-Amino-N-[[6,7-dichloro-3-(1H-pyrazol-4-yl)-1H-indol-2-yl]methyl]acetamide formic acid salt], the IC50 in assay [1] was found to be 0.0598 µM; in assay [2] (setting [3]), 4.17 µM.
For the molecule `O=C1NCC(C(=O)N2CCn3c(c(-c4cn[nH]c4)c4ccc(Cl)c(Cl)c43)C2)O1` (centres unmarked) [Example 180, 5-[6,7-Dichloro-10-(1H-pyrazol-4-yl)-3,4-dihydro-1H-pyrazino[1,2-a]indole-2-carbonyl]oxazolidin-2-one], the IC50 was found to be 0.018 µM in assay [1] and 1.85 µM in assay [2] (setting [3]).
For `OCCCNc1cc(Cl)c(F)c2c1c(-c1cn[nH]c1)cn2-c1cn(CCO)nn1` [Example 173, 3-[[6-Chloro-7-fluoro-1-[1-(2-hydroxyethyl)triazol-4-yl]-3-(1H-pyrazol-4-yl)indol-4-yl]amino]propan-1-ol], the results for the concentration for half-maximal inhibition (IC50) in assay [1] and in assay [2] (setting [3]) were 0.0145 µM and 0.466 µM, respectively.
On to `O=C1NCC(C(=O)N2CCn3c(c(-c4cn[nH]c4)c4ccc(Cl)c(Cl)c43)C2)O1` (single isomer, unassigned) [Example 260, 5-[6,7-Dichloro-10-(1H-pyrazol-4-yl)-3,4-dihydro-1H-pyrazino[1,2-a]indole-2-carbonyl]oxazolidin-2-one], for which the IC50 in assay [1] turned out to be 0.0115 µM; in assay [2] (THP1 cells), 4.05 µM.
For the molecule `O[C@H]1CC[C@H](Nc2cc(Cl)c(Cl)c3[nH]cc(-c4cn[nH]c4)c23)C1` (racemic) [Example 209, trans-3-[[6,7-Dichloro-3-(1H-pyrazol-4-yl)-1H-indol-4-yl]amino]cyclopentanol (racemic mixture)], the IC50 is 0.0158 µM in assay [1] and 0.351 µM in assay [2] (setting [3]).
On the same counts, the results for `N#CCOc1cc(Cl)c(Cl)c2c1c(-c1cn[nH]c1)c1n2CCN(C(=O)CN2CCOCC2=O)C1` [Example 290, 2-((6,7-Dichloro-2-(2-(3-oxomorpholino)acetyl)-10-(1H-pyrazol-4-yl)-1,2,3,4-tetrahydropyrazino[1,2-a]indol-9-yl)oxy)acetonitrile] are 0.0321 µM and 6.97 µM.
For `COc1cc(Cl)cc2c1c(-c1cn[nH]c1)cn2-c1cn(CCO)nn1` [Example 161, 2-[4-[6-Chloro-4-methoxy-3-(1H-pyrazol-4-yl)indol-1-yl]triazol-1-yl]ethanol] the same measures were 0.0616 µM and 1.01 µM.
On to `CC(=O)N1CCn2c(c(-c3cn[nH]c3)c3c(NCCCO)cc(Cl)c(Cl)c32)C1` [Example 253, 1-[6,7-Dichloro-9-(3-hydroxypropylamino)-10-(1H-pyrazol-4-yl)-3,4-dihydro-1H-pyrazino[1,2-a]indol-2-yl]ethanone], for which the figures for the IC50 in assay [1] and in assay [2] (setting [3]) were 0.014 µM and 0.509 µM, respectively.
On the same counts, the results for `N#CCOc1cc(Cl)c(Cl)c2c1c(-c1cn[nH]c1)c1n2CCN(C(=O)CN2CCOCC2)C1` [Example 289, 2-((6,7-Dichloro-2-(2-morpholinoacetyl)-10-(1H-pyrazol-4-yl)-1,2,3,4-tetrahydropyrazino[1,2-a]indol-9-yl)oxy)acetonitrile] are 0.0303 µM and 3.73 µM.
On to `NCCOCCOCCOCCC(=O)NC1CCc2c(-c3cn[nH]c3)c3ccc(Cl)c(Cl)c3n2C1` (centres unmarked) [Example 124, 3-[2-[2-(2-Aminoethoxy)ethoxy]ethoxy]-N-[3,4-dichloro-10-(1H-pyrazol-4-yl)-6,7,8,9-tetrahydropyrido[1,2-a]indol-7-yl]propanamide], for which the IC50 in assay [1] was 0.0882 µM; in assay [2] (setting [3]), over 10 µM.
As for `CCNc1cc(Cl)c(Cl)c2c1c(-c1cn[nH]c1)c1n2CCN(C(C)=O)C1` [Example 255, 1-(6,7-dichloro-9-(ethylamino)-10-(1H-pyrazol-4-yl)-3,4-dihydropyrazino[1,2-a]indol-2(1H)-yl)ethan-1-one hydrochloride], the IC50 in assay [1] is 0.0326 µM; in assay [2] (setting [3]) it was 2.09 µM.
For `CN1CCC(CC(=O)N2CCn3c(c(-c4cn[nH]c4)c4ccc(Cl)c(Cl)c43)C2)C1=O` (centres unmarked) [Example 300, 3-(2-(6,7-Dichloro-10-(1H-pyrazol-4-yl)-3,4-dihydropyrazino[1,2-a]indol-2(1H)-yl)-2-oxoethyl)-1-methylpyrrolidin-2-one] the same measures were 0.0288 µM and over 10 µM.
For `OCCCOc1cc(Cl)c(Cl)c2[nH]cc(-c3cn[nH]c3)c12` [Example 193, 3-[[6,7-Dichloro-3-(1H-pyrazol-4-yl)-1H-indol-4-yl]oxy]propan-1-ol] the same measures were 0.00322 µM and 0.143 µM.
On the same counts, the results for `N#CCOc1cc(Cl)c(Cl)c2c1c(-c1cn[nH]c1)c1n2CCN(C(=O)C2COCCO2)C1` (centres unmarked) [Example 288, 2-((6,7-Dichloro-2-(1,4-dioxane-2-carbonyl)-10-(1H-pyrazol-4-yl)-1,2,3,4-tetrahydropyrazino[1,2-a]indol-9-yl)oxy)acetonitrile] are 0.0242 µM and 0.56 µM.
Consider `CN(C)C(=O)CCC(=O)N1CCn2c(c(-c3cn[nH]c3)c3c(NC(=O)C(F)F)cc(Cl)c(Cl)c32)C1` [Example 275, 4-[6,7-Dichloro-9-[(2,2-difluoroacetyl)amino]-10-(1H-pyrazol-4-yl)-3,4-dihydro-1H-pyrazino[1,2-a]indol-2-yl]-N,N-dimethyl-4-oxo-butanamide], for which the IC50 in assay [1] worked out at 0.0284 µM; in assay [2] (setting [3]), 4.01 µM.
Take `CCNc1cc(Cl)c(Cl)c2[nH]cc(-c3cn[nH]c3)c12` [Example 150, 6,7-Dichloro-N-ethyl-3-(1H-pyrazol-4-yl)-1H-indol-4-amine]: the IC50 in assay [1] stood at 0.0303 µM; in assay [2] (setting [3]) it was 1.92 µM.
For `O=C(Nc1cc(Cl)c(Cl)c2c1c(-c1cn[nH]c1)c1n2CCN(C(=O)CO)C1)C(F)F` [Example 272, N-[6,7-Dichloro-2-(2-hydroxyacetyl)-10-(1H-pyrazol-4-yl)-3,4-dihydro-1H-pyrazino[1,2-a]indol-9-yl]-2,2-difluoro-acetamide] the same measures were 0.0202 µM and 0.412 µM.
For `OCCc1cc(-n2cc(-c3cn[nH]c3)c3ccc(Cl)c(Cl)c32)on1` [Example 211, 2-[5-[6,7-Dichloro-3-(1H-pyrazol-4-yl)indol-1-yl]isoxazol-3-yl]ethanol] the same measures were 0.0342 µM and 2.28 µM.
Turning to `O=C(Nc1cc(Cl)c(Cl)c2[nH]cc(-c3cn[nH]c3)c12)C(F)(F)CO` [Example 169, N-(6,7-Dichloro-3-(1H-pyrazol-4-yl)-1H-indol-4-yl)-2,2-difluoro-3-hydroxypropanamide], the IC50 was found to be 0.0138 µM in assay [1] and 0.656 µM in assay [2] (setting [3]).
`OCCn1cc(-n2cc(-c3cn[nH]c3)c3ccc(Cl)c(Cl)c32)nn1` [Example 138, 2-[4-[6,7-Dichloro-3-(1H-pyrazol-4-yl)indol-1-yl]triazol-1-yl]ethanol]: the IC50 was determined as 0.0462 µM in assay [1] and 4.99 µM in assay [2] (setting [3]).
On the same counts, the results for `O=C(Cn1ccnc1)N1CCn2c(c(-c3cn[nH]c3)c3ccc(Cl)c(Cl)c32)C1` [Example 111, 1-[6,7-Dichloro-10-(1H-pyrazol-4-yl)-3,4-dihydro-1H-pyrazino[1,2-a]indol-2-yl]-2-imidazol-1-yl-ethanone] are 0.0468 µM and over 10 µM.
On the same counts, the results for `O=C(CO)NC1Cc2c(-c3cn[nH]c3)c3ccc(Cl)c(Cl)c3n2C1` (centres unmarked) [Example 154, N-(5,6-Dichloro-9-(1H-pyrazol-4-yl)-2,3-dihydro-1H-pyrrolo[1,2-a]indol-2-yl)-2-hydroxyacetamide] are 0.026 µM and 2.41 µM.
On the same counts, the results for `CC(=O)N1CCOC(CC(=O)N2CCn3c(c(-c4cn[nH]c4)c4ccc(Cl)c(Cl)c43)C2)C1` (single isomer, unassigned) [Example 264, 2-(4-acetylmorpholin-2-yl)-1-(6,7-dichloro-10-(1H-pyrazol-4-yl)-3,4-dihydropyrazino[1,2-a]indol-2(1H)-yl)ethan-1-one] are 0.0462 µM and over 10 µM.
As for `C[C@H](O)C(=O)NCc1[nH]c2c(Cl)c(Cl)ccc2c1-c1cn[nH]c1` [Example 168, (S)—N-((6,7-Dichloro-3-(1H-pyrazol-4-yl)-1H-indol-2-yl)methyl)-2-hydroxypropanamide], the values for the concentration for half-maximal inhibition (IC50) in assay [1] and in assay [2] (setting [3]) were 0.0463 µM and 1 µM, respectively.
For the molecule `NC(=O)NCc1[nH]c2c(Cl)c(Cl)ccc2c1-c1cn[nH]c1` [Example 164, [6,7-Dichloro-3-(1H-pyrazol-4-yl)-1H-indol-2-yl]methylurea], the IC50 amounted to 0.0543 µM in assay [1] and 1.34 µM in assay [2] (setting [3]).
For the molecule `OCc1nnc(-c2[nH]c3c(Cl)c(Cl)ccc3c2-c2cn[nH]c2)o1` [Example 157, (5-(6,7-Dichloro-3-(1H-pyrazol-4-yl)-1H-indol-2-yl)-1,3,4-oxadiazol-2-yl)methanol], the IC50 is 0.0281 µM in assay [1] and 0.331 µM in assay [2] (setting [3]).
